Source: patent US10046050B2, “Targeting immunotherapy for amyloidosis” (UNIVERSITY OF TENNESSEE RESEARCH FOUNDATION, priority 2014, dated 2018)

How the values were obtained:
[1] = system: synthetic and naturally-occurring amyloid samples; experiment: Pull down assay of ^125I-labeled peptides; format: binding
Procedure: To evaluate the binding of p66 and p5+14 to synthetic and naturally-occurring amyloid, peptides p66 or p5+14 were radiolabeled with iodine-125 (I-125, ^125I) using oxidation with chloramine T (1 mg/ml in water freshly made. Free 1-125 was removed from the reaction mixture by size exclusion chromatography using a Sephadex G-25 solid phase and a 0.1% (w/v) gelatin in PBS mobile phase. Fractions of ˜250 μl were collected and the radioactivity in each measured using a gamma counter (Packard Cobra II auto-gamma counter). Peptide fractions with peak radioactivity were pooled and used for the “pull-down” assays.
For the pull down assay, ^125I-labeled peptide binding to murine: (m) AA and wild type (WT) liver homogenates (25 μl); rVλ6Wil (AL), Aβ(1-40) and islet amyloid polypeptide (IAPP) synthetic fibrils (25 μg), and; transthyretin-associated (ATTR), ALκ4-Cab and ALλ1-Ship human amyloid extracts (50 μg). The ^125I-peptides were prepared in PBST (0.15 M NaCl) or PBST with 1 M NaCl. Ten μl (˜5 ng, ˜100,000 counts per min [cpm]) of the ^125I-peptide solution was added to each test sample in a 200 μl volume. The reaction mixtures were rotated for 1 h at RT, then centrifuged twice at 16,000×g for 10 min. After each step the supernatants were removed and collected in test tubes. The pellets, obtained following the second spin were resuspended in PBST. The radioactivity in both the supernatant and pellet samples were measured using a Packard Cobra II auto-gamma counter. The bound peptide, expressed as % total was calculated according to: Bound peptide (% total)=(Pellet cpm)/(Pellet cpm+Supernatant cpm)

AA amyloid = target: T1, AA amyloid (Mus musculus, UniProt P05367); experiment: In vivo pre-targeting of ^125I-11-1F4 to systemic AA amyloid; design: species or system mice
T1 construct: from tissue; host or cells: organs of living H2-L^d-huIL-6 Tg Balb/c mice after AEF injection
T1 sequence (P05367 20-94 limits assumed): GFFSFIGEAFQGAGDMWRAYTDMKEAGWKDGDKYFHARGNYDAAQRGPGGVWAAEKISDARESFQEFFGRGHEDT
Procedure: Systemic visceral AA amyloidosis was induced in H2-L^d-huIL-6 Tg Balb/c transgenic mice that constitutively express the human interleukin-6 transgene, by iv injection of 10 μg of purified, splenic AA amyloid (amyloid enhancing factor; AEF) in 100 μL of sterile phosphate-buffered saline (PBS). Peptide p66 pre-targeting of ^125I-11-1F4 was evaluated in mice at 3-4 wk post AEF injection when amyloid load was modest.
Three cohorts of 3 mice, each received ˜400 μg of unlabeled peptide p66, and a second group of 3 cohorts were given peptide p5+14 as a control. Twenty-four hours after the peptide injection all mice were administered ˜150 μCi (˜20 μg) of ^125I-11-1F4 IV in the lateral tail vein. One group of p66 mice (n=3) and one group of p5+14 control mice (n=3) were euthanized at 24, 48 and 72 h post injection of 11-1F4 mAb and the organs harvested at necropsy for fixation, followed by microautoradiographic and immunohistochemical analyses.
For autoradiography, 6-μm-thick sections were cut from formalin-fixed, paraffin-embedded blocks, containing tissues from mice that had received […]. The sections were placed on Plus microscope slides (Fisher Scientific), dipped in NTB-2 emulsion (Eastman Kodak), stored in the dark, and developed after a 4 day exposure. Each section was counterstained with hematoxylin and eosin.
Formalin-fixed paraffin embedded tissue sections, from mice treated with p66 peptope or peptide p5+14 were subjected to antigen retrieval using citrate buffer (pH 6; Dako) 30 min at 90° C. The tissue was then blocked with hydrogen peroxide, casein, and avidin and biotin, per manufacturer's instructions. The biotinylated peptide-reactive mAb (clone 12-3 [described above]) was then added (1.6 μg/mL in PBS) an the samples incubated for 2 h at RT, O/N at 4° C., followed by another 2 h period at RT. […]
The presence of macrophages was detected by staining with mAb Iba-1 (1:8000 diln) followed by addition of biotinylated rabbit anti-mouse secondary reagent (Vector Rabbit Elite kit). […]

Aβ(1-40) fibrils = target: T2, Aβ(1-40) fibrils (Homo sapiens, UniProt P05067); experiment: Pulldown assay of ^125I-7D8 with fibrils +/- peptope; format: binding; settings: fibrils pre-incubated with peptope (65 nM)
T2 construct: synthetic amyloid fibrils composed of rVλ6Wil (AL fibrils) or Aβ(1-40); host or cells: synthetic peptide fibrils
T2 sequence (P05067 672-711 limits assumed): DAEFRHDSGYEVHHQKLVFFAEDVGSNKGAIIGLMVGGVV
Procedure: The 7D8 antibody (15 μg) was radiolabeled with 0.5 mCi of reductant-free iodine-125 (^125I, Perkin Elmer) using limiting amounts of chloramine T (10 μg) and suspended in PBS containing 0.1% gelatin as carrier protein. Unbound radioisotope and protein aggregates were removed from the preparation by size-exclusion liquid chromatography using an Ultrogel AcA34 solid phase (Amersham Pharmacia). Fractions containing ^125I-7D8 were pooled for pull-down assays. The relative radiopurity of the preparation was assessed by SDS/PAGE (4-12% acrylamide; Novex) followed by imaging using a phosphor-imager (Cyclone).
Pulldown assays were performed using ^125I-7D8 using, as a substrate, peptope-conjugated to polystyrene beads, synthetic fibrils (Aβ[1-40] or IAPP) or human ATTR amyloid extracts (transthyretin-associated amyloid [ATTR] was previously isolated from the organs of three different patients with Appalachian mutation—Thr60Ala). […] The sample was mixed end over end for 1 h at room temperature, and the bound and free ^125I-7D8 were then separated by serial centrifugations at 16,000×g and the percent bound calculated immunoreactivity=[boundcpm/(boundcpm+freecpm)]×100 Pulldown assays using synthetic fibrils and amyloid extracts were performed essentially as described herein. […]

| Substance | binding of ^125I-peptide to amyloid samples ([1]; 0.15 M NaCl) | binding of ^125I-peptide to amyloid samples ([1]; 1.0 M NaCl) | co-localization of ^125I-11-1F4 with AA amyloid after peptide pre-targeting (AA amyloid; 24 h post injection of 11-1F4 mAb, peptide given 24 h before mAb) | liver macrophage infiltration (Iba-1 staining) (AA amyloid; 72 h post injection of 11-1F4 mAb, peptide pre-injected, preliminary data) | bound mAb (Aβ(1-40) fibrils) |
| --- | --- | --- | --- | --- | --- |
| KAQKAQAKQAKQAQKAQKAQAKQAKQAQKAQKAQAKQAKQ SVTVVT KHYAAFPENLLI [p66] | bound equally well | bound equally well | exclusively co-localized with the p66-coated AA amyloid | induced macrophage infiltration into the liver and clustering of macrophages around amyloid deposits to a greater degree | – |
| KAQKAQAKQAKQAQKAQKAQAKQAKQAQHEDT [p75, KAQKAQAKQAKQAQKAQKAQAKQAKQAQHEDT] | – | – | – | – | 58.9% |
